Broadly, the melting point is the temperature, or range, at which the solid turns liquid.

`O=Cc1ccc2[nH]c(C(=O)OCc3ccccc3)cc2c1` had a melting point of 172 °C.
The result for `CCOC(=O)C(CO)C(C)c1cccnc1` (centres undefined) reads 128 to 131 °C.
`Cc1cn(-c2cc(C#N)c(N)c(C(F)(F)F)c2)c(C)n1`: the melting point was 208 to 210 °C.
The result for `Cn1ncc2c1CSc1cn[nH]c1-2` reads 224 to 226 °C; that for `O=C1CCCN1c1ccnn1-c1c(Cl)cc(C(F)(F)F)cc1Cl`, 130 to 131 °C; that for `COc1ccc(C(O)Cc2ccccn2)cc1OC1CCCC1` (centres undefined), 94 to 96 °C.
The result for `O=C(O)CCCCNCc1cc2cc3c(cc2c2cc(OCc4ccccc4)ccc12)OCO3` reads 197 to 199 °C.
In turn, `CCCc1nc2c(N)nc3ccccc3c2n1CCCCNS(=O)(=O)c1ccccc1` displayed a melting point of 159 to 161 °C.
For the compound `Cc1[nH]n(C2CCCC2O)c2nc(-c3ccncc3)nc(=O)c1-2` (centres undefined), the melting point fell in the range of 281 to 283 °C.
The figure for `O=[N+]([O-])c1cccc(NS(=O)(=O)c2ccccc2)c1` is 132 to 134 °C.
`FC(F)(F)c1ccc(-c2cnn(-c3cccnc3)c2)cn1` yielded a melting point of 203 to 204 °C.
As for `O=C(O)CON=C(c1ccc(Cl)cc1)c1ccc(Cl)cc1`, the melting point lay within 147 to 148 °C.
`C#CC(C)N1CCNC1=O` (centres undefined) yielded a melting point of 90 to 92 °C.
The result for `CC(C)c1onc2c1c(=O)n(C)c(=O)n2C` reads 106 °C.
The compound `CC(Cl)C(=O)c1ccc2c(c1)CCCC(=O)N2` (centres undefined) registered a melting point of 230 °C.
As for `CNS(=O)(=O)c1ccccc1S(=O)(=O)NC(=O)Nc1nc(C)cc(C)n1`, the melting point was in the range of 180 to 185 °C.
The figure for `O=C(O)C(Cc1ccc(OCc2ccccc2)cc1)c1ccccc1` (centres undefined) is 133 to 137 °C; for `CC12CCC(C(=O)O)=CC1=CCC1C2CCC2(C)C(C(=O)NC3C4CC5CC(C4)CC3C5)CCC12` (centres undefined) it is 214 to 216 °C.
The figure for `O=C1Nc2cc(Cl)ccc2/C1=C\c1cccc(C(F)(F)F)c1` is 157 to 160 °C; for `COc1ccc(C(=O)Nc2ccc3ccc(-c4ccccc4)nc3n2)cc1` it is 187 °C; for `COc1ccc2cc(O)c(C(C)(C)O)cc2c1` it is 148 to 150 °C.
The result for `CCOC(=O)C1=C(C)NC(C)=C(C(=O)OCC)C1c1ccccc1F` reads 151 to 152 °C.
Compound `CC(C)(C)OC(=O)Nc1cc(OCC#N)c(-c2ccc(F)cc2)cc1[N+](=O)[O-]` displayed a melting point of 148 °C.
The result for `CN(C(=O)c1cnc2c(C(F)(F)F)cccc2c1-c1ccccc1)c1ccccc1` reads 188 to 190 °C; that for `COC(=O)c1cn2c(C)c(-c3ccccc3)sc2n1`, 155 to 157 °C.
Consider `CN(CCc1ccccc1)CCc1ccc(Nc2ncc3c(n2)-c2ccccc2C(c2cccc(Br)c2)C3)cc1` (centres undefined), for which the melting point lay within 80 to 82 °C.
The figure for `CCCCc1nn(-c2ccc(NCc3ccccc3)cc2C(F)(F)F)c(=O)n1Cc1ccc(-c2ccccc2S(=O)(=O)NC(=O)c2ccccc2Cl)cc1` is > 107 °C.
`OCC(O)Cc1c(Cl)cc2c(c1OCc1ccccc1)CCC2` (centres undefined) displayed a melting point of 101 to 104 °C.
The result for `COc1cc(OC)c(NC(=O)NC2(c3ccccc3)CCCC2)c(OC)c1` reads 193 to 195 °C.
The figure for `CCCCC(=O)NNC(=O)c1ccncc1` is 162 °C; for `COc1ccc(/C=C/C(=O)Nc2cc3ccccc3cc2C(=O)O)cc1OC` it is 212 to 213 °C; for `Oc1c(CN2CCCC2)cc(Nc2ccc3ccccc3n2)cc1CN1CCCC1` it is 64 to 66 °C.
The figure for `Cc1nc(-n2ccc(OCC3CCCC3)cc2=O)sc1C(=O)NCc1ccccc1` is 196 to 198 °C; for `C#CC1(OCc2ccccc2F)CCN(C(C)=O)CC1` it is 59 to 62 °C; for `O=C(Nc1ccccc1S(=O)(=O)c1ccccc1)N[C@@H](Cc1ccc(Nc2nccc3ccncc23)cc1)C(=O)O` it is 184 °C.
Take `CCNC(=O)C(C)NC(=O)OCc1ccccc1` (centres undefined): the melting point lay in the range of 116 to 117 °C.
The figure for `CCc1cn(C2CC(O)(C(C)=O)C(CO)O2)c(=O)[nH]c1=O` (centres undefined) is 150 °C.
The result for `Oc1ccc(-c2cccc(Cl)c2)cc1` reads 98 to 101 °C.
The figure for `COc1ccc(C(=O)N2c3ccccc3C(n3c4ccccc4c4ccccc43)CC2CCCCCOc2ccc(F)cc2)cc1OC` (centres undefined) is 157 to 159 °C; for `Cn1cc(-c2ncc(-c3ccc4cc(O)ccc4c3)o2)c2ccccc21` it is 188 to 190 °C.
Consider `CC(=O)c1nc2cccc(Oc3ccccc3)c2cc1OCc1ccccc1`, for which the melting point lay within 116 to 118 °C.
Take `O=[N+]([O-])c1cc2nc(O)c(O)nc2c2scnc12`: the melting point was > 360 °C.
For `O=C(NCCO)c1cnc(C(F)(F)F)s1`, the melting point is 128 to 130 °C.
The compound `CCCS(=O)c1sc(C(N)=O)c2c1-c1c(cnn1CC)CC2` (centres undefined) had a melting point of 151 to 152 °C.
For `CC(C)(C)OC(=O)CN1C(=O)C(NC(=O)OCc2ccccc2)C1CCC(=O)O` (centres undefined), the melting point fell in the range of 118 to 120 °C.
The result for `CN(C)C(=S)N(C)Cc1ccc(CCn2cnc3cc(-c4ccc(Cl)cc4)sc3c2=O)cc1` reads 156 to 158 °C; that for `O=C(NCCNCC(O)COc1ccc(OCCOCC2CC2)cc1)N1CCOCC1` (centres undefined), 80 to 81 °C.
The result for `CCCCC1(CCCC)CS(=O)(=O)c2ccc(N(C)C)cc2[C@@H](c2ccc(OCc3cccc(CCC(=O)O)n3)cc2)[C@H]1O` reads 105 to 107 °C; that for `Cc1nn(C)c2[nH]c(=O)c3ccccc3c12`, > 310 °C; that for `O=c1[nH]c(Cl)nc2ccccc12`, 251 to 252 °C.
The figure for `COc1nc2cc(Br)cc(C=O)c2nc1OC` is 179 to 182 °C.
For the compound `OCCOc1cc2ccccc2cc1OCCOc1ccccc1`, the melting point was in the range of 119 to 120 °C.
In turn, `CN(CCN(O)C(N)=O)Cc1cccc(Oc2ccc(Cl)c(Cl)c2)c1` had a melting point of 107 to 109 °C.
Regarding `O=C(NC1CN(C(C(=O)O)c2ccccc2)C1=O)C(=NO)c1ccccc1` (centres undefined), the melting point fell in the range of 145 to 149 °C.
The result for `O[C@H](CCc1cccnc1)COc1ccc(-c2cccc(F)c2)cc1` reads 61 to 62 °C; that for `NS(=O)(=O)c1cnc(S(=O)(=O)c2ccccc2)s1`, 119 to 120 °C.
The result for `O=c1oc2ccccc2c(=O)n1CCCCCCCCCO` reads 125 to 128 °C; that for `O=C(Nc1ccc(C(=O)O)cc1)OCCCCC1c2ccccc2-c2ccccc21`, 146 to 149 °C; that for `COc1ccc(Cl)cc1C(=O)NC1COc2cc(C)ccc2C1O` (centres undefined), 151 to 152 °C.
The figure for `CC(Cc1cccc([N+](=O)[O-])c1)(NC(=O)CN1C(=O)c2ccccc2C1=O)c1ccccc1` (centres undefined) is 172 to 173 °C; for `Nc1cccc2c1ccn2S(=O)(=O)c1cccc2ccccc12` it is 133 to 134 °C; for `CS(=O)(=O)OCCN(CCCl)c1ccc([N+](=O)[O-])c(C(=O)NCCCO)c1[N+](=O)[O-]` it is 104 to 109 °C.
As to `COc1ccc2sc(C(=O)O)c(Oc3ccccc3)c2c1`, the melting point is 197 °C.
The figure for `CCCCCc1cc2c(nc(O)n2CC2CCN(S(C)(=O)=O)CC2)c(N)n1` is 228 to 231 °C; for `Cc1ccc(C2CCCN2S(=O)(=O)c2ccc(Cl)cc2)cc1` (racemic) it is 129 °C; for `O=CN(O)C(CS(=O)(=O)c1ccc(Oc2ccc(OC(F)(F)F)cc2)cc1)C1CCC2(CC1)OCCO2` (centres undefined) it is 176 to 177 °C.
`CC(C)CC(NC(=O)Cc1ccc(NC(=O)Nc2ccccc2)cc1)c1ncc(CCC(=O)O)s1` (centres undefined) had a melting point of 146 to 148 °C.
The compound `COC(=O)C1=C(C)NC(C)=C(C(=O)OCOC(C)=O)C1c1cccc(Cl)c1Cl` (centres undefined) showed a melting point of 144 to 148 °C.
The figure for `Nc1sc2c(c1C(=O)c1cccc(CF)c1)CCN(Cc1ccccc1)C2` is 58 to 60 °C; for `O=C(O)CN1CCC[C@H](OCc2cc(C(F)(F)F)cc(C(F)(F)F)c2)[C@@H]1c1ccccc1` it is 60 to 63 °C.
The figure for `COC(=O)c1cccc(CNC(=O)C2Cc3ccccc3N2S(=O)(=O)c2ccc(-c3cccc(C(F)(F)F)c3)cc2)c1` (centres undefined) is 50 °C; for `Cc1nc2c(O)c(CCC(=O)c3ccccc3)c(C(=O)N(C)C)cc2n1C` it is 223 to 224 °C.
Compound `CCCCC(=O)c1ccc(-c2ccccc2)cc1` registered a melting point of 79 to 79.5 °C.
The figure for `C=CCSc1cn(C)cc(-c2ccccc2)c1=O` is 136 to 138 °C; for `CCC(=O)N(O)C(C)c1ccco1` (centres undefined) it is 74 to 76 °C; for `CN(C)C(=O)c1ccc([N+](=O)[O-])cc1S(=O)(=O)NC(C)(C)C` it is 138 to 141 °C.
As for `COc1ccc2[nH]c(S(=O)Cc3ncc(C)c(N(C)C)c3Cl)nc2c1` (centres undefined), the melting point lay in the range of 147 to 149 °C.
The result for `Clc1ccc(-c2nc(COc3ccc(CCCn4ccnc4)cc3)co2)cc1` reads 116 to 117 °C; that for `CC(=O)CCCN1CCC(NC(=O)c2cc(Cl)c(N)c3c2OC(C)(C)C3)CC1`, 119 °C.
The figure for `CNc1nc(S(C)=O)nc(N)c1[N+](=O)[O-]` (centres undefined) is 229 to 234 °C; for `CCCn1nnn(-c2cc(OC3CCCO3)c(Cl)cc2Cl)c1=O` (centres undefined) it is 89 to 90 °C; for `O=C(NCCNS(=O)(=O)c1ccc(Oc2ccccc2)cc1)P(=O)(O)O` it is 166 to 169 °C.
The result for `CC(=O)c1ccc(Oc2ccc(F)cc2F)c(NS(C)(=O)=O)c1` reads 142 to 143 °C; that for `Clc1cccc2c(CN3CCN(c4ccc5c(c4)OCO5)CC3)n[nH]c12`, 173 to 174 °C.
`C(=Cc1ccccc1)COc1ccc(C2OCCO2)cc1` came in with a melting point of 102 °C.
The result for `O=c1[nH]c2sc3ccc(C(F)(F)F)cc3c2[nH]c1=O` reads > 320 °C.
Compound `CC(C)(C)c1cc(CCc2ccccc2NC(=O)NC2CCN(CCc3ccc(F)cc3)CC2)cc(C(C)(C)C)c1O` yielded a melting point of 117 to 119 °C.
On to `C=C=COc1ccc2cc3ccccc3cc2c1`, for which the melting point is 90.3 to 95.6 °C.
The figure for `O=C(O)Cc1c(-c2ccccc2)nn2cccnc12` is 78 to 90 °C.

Source of the values: a melting point compilation (Tetko et al.; mined from patent text by program, amines drawn as free bases though some values may be those of a salt).
